Test results as given in publication doi:10.1101/2021.04.12.439490v1 (biorxiv, 2021).

Biological target: full-length WDR5, C-terminal NanoLuc fusion (WDR5-C) (Homo sapiens, UniProt P61964)
Experiment: NanoBRET tracer titration
Assay type: cell-based

Kd: ~1000 nM
Structure (SMILES): CN1CCN(c2ccc(-c3ccc(C(=O)NCCCOCCOCCOCCCNC(=O)CCc4ccc5n4[B-](F)(F)[N+]4=C(c6ccc[nH]6)C=CC4=C5)cc3)cc2NC(=O)c2c[nH]c(=O)cc2C(F)(F)F)CC1 [19c]
